Source: patent publication US20210388029A1, “CYTOPLASMIC TRANSDUCTION PEPTIDE AND INTRACELLULAR MESSENGER COMPRISING SAME” (priority 2016, published 2021)
No end group written: not given here.

Test system: HeLa cells
Assay: Cell membrane penetration activity in HeLa cells, immunostaining / confocal laser scanning microscope
Assay type: cell-based
Conditions: 3 hours; for fluorescence signal versus concentration (zinc finger domain peptides): FITC-conjugated
Description: HeLa cells were seeded into a 12-well plate having glass at a density of 1×10^5 cells/well, and then cultured for 24 hours to attach the cells to the glass. Then, cells were treated with FITC-NC peptides at […] concentration for 3 hours. After 3 hours, the cells were washed three times with PBS, the cells were fixed with 3.7% formaldehyde for 20 minutes, and the cells were treated with PBS containing 0.2% Triton X-100 to increase the cell membrane penetration activity. Then, the cells were blocked with 3% BSA for 1 hour, reacted with lamin A/C antibody (Sigma-Aldrich, USA) at room temperature for 2 hours, and washed three times with PBS. Next, the cells were treated with Cy3-conjugated secondary antibody (Jackson ImmunoResearch, USA) at room temperature for 1 hour, washed twice with PBS, and then stained with DAPI (4′,6-diamidino-2-phenylindol) for 10 minutes. The HeLa cell-attached glass was removed and placed on a slide glass.
The HeLa cells were seeded into a 12-well plate containing glass at a density of 1×10^5 cells/well, and then cultured for 24 hours to attach the cells to the glass. Thereafter, the FITC-NC peptide, the trans-activating transcriptional activator peptide (FITC-Tat peptide), the FITC-MA11 peptide, the protein transduction domain-ys peptide (FITC-PTD-ys peptide), the translocation motif peptide (FITC-TLM peptide) and FITC-TD1 peptide were treated with the HeLa cells for 3 hours. After 3 hours, the cells were washed 3 times with PBS and the cells were fixed with 3.7% formaldehyde for 20 minutes. The cells were treated with PBS containing 0.2% Triton X-100 to increase cell membrane penetration activity and blocked with 3% BSA for 1 hour. Then, the cells were reacted with tubulin antibody (Santa Cruz Biotechnology, USA) at room temperature for 2 hours and washed three times with PBS. The cells were treated with Cy3 secondary antibody. They were reacted at room temperature for 1 hour, washed twice with PBS, and stained with DAPI for 10 minutes. The HeLa cell-attached glass was removed and placed on a slide glass.
Further, in order to identify a change in cell membrane penetration activity by FITC-NC peptide, the HeLa cells were treated with hexapeptide, FITC-hexapeptide, FITC-NC-hexapeptide, FITC-13NC35 peptide and FITC-29NC50 peptide for 3 hours in the same manner as above and observed with a confocal laser scanning microscope. Meanwhile, the amino acid sequences of the hexapeptide, PTD-ys peptide, TLM peptide, TD1 peptide, NC-hexapeptide, 13NC35 peptide and 29NC50 peptide used are shown in Table 5 below.

| Substance | fluorescence signal versus concentration (zinc finger domain peptides) | other results |
| --- | --- | --- |
| 13NC35 peptide: 13th to 35th amino acid of HIV-NC with first zinc finger domain, SEQ ID NO: 10 VKCFNCGKEGHTARNCRAPRKKG (cysteine pairing not given here; also: FITC label, place not given here) | fluorescence signals were increased in proportion to the concentration | – |
| 29NC50 peptide: 29th to 50th amino acid of HIV-NC with second zinc finger domain, SEQ ID NO: 11 RAPRKKGCWKCGKEGHQMKDCT (cysteine pairing not given here; also: FITC label, place not given here) | fluorescence signals were increased in proportion to the concentration | – |
| FITC-TLM peptide: translocation motif peptide, SEQ ID NO: 7 PLSSIFSRIGDP, FITC-conjugated [reference compound] | – | cell membrane penetration (confocal) (20 μM): hardly penetrable to the cell membrane |
| hexapeptide: polypeptide cargo, SEQ ID NO: 5 EEMQRR (also: FITC label, place not given here) | – | cell membrane penetration of polypeptide cargo (confocal) (FITC-labelled): did not penetrate the cell membrane |
